Data on 1 molecule can be found in patent US8452543B2, “High throughput screening for antimicrobial dosing regimens” (priority 2005, dated 2013).

Data set [1] in a line: in vivo. On the procedure: In vivo meropenem concentrations in mouse serum were determined by a microbioassay utilizing Escherichia coli ATCC 25922 as the reference organism. The meropenem standard solutions ranged from 0.5 to 128 μg/ml in mouse serum.
(§1) Female Swiss-Webster mice (22-26 g) were used; all mice were cared for in accordance to the highest humane and ethical standards, as approved by the Institutional Animal Care and Use Committee (IACUC). The animals were housed in isolation boxes to decrease the risk of infection from extraneous pathogens. They received food and water ad libitum. The animals were rendered neutropenic by 2 intra-peritoneal injections of cyclophosphamide (Sigma, St. Louis, Mo.) 150 mg/kg on day −4 and 100 mg/kg on day −1 prior to infection; previous studies have shown that this regimen would produce neutropenia for 5 days (13, 16). Transient nephrotoxicity was induced by 1 intra-peritoneal injection of uranyl nitrate (5 mg/kg on day −2), which has been previously shown to produce a significant stable reduction in renal function for at least 7 days (21).
The bacterial inoculum was prepared and inoculated into the animals as outlined below. […] Six mice were sacrificed by CO2 asphyxiation at 0.5, 1, 1.5, 2, and 3 hours after injection. Blood samples were collected via cardiac puncture. The blood was allowed to clot on ice and centrifuged; meropenem concentrations in these serum samples were assayed by a validated method as described below. The serum concentration profiles of all the animals were analyzed by linear regression of the logarithmic-transformed data.

The subject of data set [2] is Pseudomonas aeruginosa. Type of data set: cell-based.
Protocol: The computer simulations were compared to experimental data from an in-vitro hollow fiber infection model with similar antimicrobial agent exposures (20). Basically the drug was injected directly into the central reservoir to achieve the peak concentration desired. Fresh (drug-free) growth medium (Ca-MHB) was continuously infused from the diluent reservoir into the central reservoir to dilute the drug in order to simulate drug elimination in humans. An equal volume of meropenem-containing medium was removed from the central reservoir concurrently to maintain an isovolumetric system. […]
Various elimination half-lives (1-3 hours) of meropenem were simulated and were validated subsequently in the infection models. Serial samples were obtained at baseline and daily (pre-dose) in duplicate from each hollow fiber system, for quantitative culture to define the effect of various drug exposures on the total bacterial population and on selection of resistant bacterial sub-populations.
Prior to culturing the bacteria quantitatively, the bacterial samples were centrifuged at 15,000 G for 15 minutes and reconstituted with sterile normal saline in order to minimize drug carry-over effect. Total bacterial populations were quantified by spiral plating 10× serial dilutions of the samples (50 μl) onto drug-free Mueller-Hinton agar (MHA) plates (Hardy Diagnostics, Santa Maria, Calif.). […]
The test system of data set [3] is P. aeruginosa ATCC 27853. In words: MIC/MBC, modified macrobroth dilution. Format: cell-based, Pseudomonas aeruginosa. On the procedure: The final concentration of bacteria in each macrobroth dilution tube was approximately 5×10^5 cfu/ml of Ca-MHB. Serial twofold dilutions of meropenem were used. […] Samples (50 μl) from clear tubes and the cloudy tube with the highest drug concentration were plated on Mueller-Hinton agar (MHA) plates (Hardy Diagnostics, Santa Maria, Calif.). […] Drug carry-over effect was assessed by visual inspection of the distribution of colonies on media plates. The studies were conducted in duplicate and repeated at least once on a separate day.
For orientation: Dilution methods test growth across graded concentrations, often in twofold steps.

Data set [4] has as its system P. aeruginosa ATCC 27853 and its isogenic OprD− mutant (1000:1). As to the kind of experiment: Murine pneumonia model. Format: in vivo, mice. On the procedure:
as §1
Each mouse was anesthetized with a single intra-peritoneal dose ([…]) of tribromoethanol (Sigma, St. Louis, Mo.), and was intubated under laryngoscopic guidance. For each mouse, the correct placement of endotracheal tube was verified by placing a cooled mirror surface close to the exit to observe water vapor condensation. A few colonies of the bacterial isolates were inoculated into Ca-MHB and incubated at 35° C. until they reached late log phase growth. The bacterial suspension was diluted to the desired concentration of approximately 10^8 CFU/ml based on absorbance at 630 nm; a mixture of wild-type and its isogenic OprD^− mutant in a 1000:1 ratio was used to mimic a heterogeneous bacterial population. The inocula (10 μl) were directly inoculated into the trachea of the anesthetized animals.
Two hours after infection, 3 mice were sacrificed by CO2 asphyxiation to ascertain the bacterial burden in lung tissues. The lung tissues were aseptically collected and homogenized in 10 ml of sterile saline. The homogenates were centrifuged at 6000×G for 15 minutes. The supernatant was discarded and the pellets were re-suspended in normal saline to 10× their original volumes in order to minimize drug carry-over effect. They were then diluted ten-fold serially and quantitatively cultured on Mueller-Hinton agar (MHA) plates (Hardy Diagnostics, Santa Maria, Calif.) and MHA plates supplemented with meropenem at 3× the MIC of the wild-type isolate. The media plates were incubated at 35° C. in a humidified incubator for up to 24 hours (for MHA plates) and 72 hours (for meropenem-supplemented MHA plates) before reading and the bacterial burden in lung tissues enumerated.
The remaining mice were observed every 8 hours for 4 days, with or without meropenem (400 mg/kg) given intra-peritoneally every 8 hours (10 mice in each group). Total bacterial burden and those with reduced susceptibility in animal lung tissues were determined in a similar manner upon death or at the end of the experiment. Susceptibility testing was repeated on representative isolates recovered from meropenem-supplemented plates to confirm the presence of resistance.

Setting [5] is: female, Swiss-Webster, mouse, in vivo, 400 mg/kg.
The mark [6] stands for this setting: 10 mice received meropenem treatment.

Usually Cmax stands for the peak of the concentration-time curve. Broadly, the half-life is how long it takes for the measured level to halve. Read a low half-life as rapid decline. A word on the MBC: it is the smallest concentration meeting the test's criterion for killing. By MIC is commonly meant the lowest concentration found to suppress growth.

Molecules are shown by their SMILES. In brackets after ≈: the same amount, converted by molar mass. Read-outs that look alike come from different tables or passages of the source.

For the molecule `C[C@@H](O)[C@H]1C(=O)N2C(C(=O)O)=C(S[C@@H]3CN[C@H](C(=O)N(C)C)C3)[C@H](C)[C@H]12` [meropenem], the “% T>MIC” value is 26% in data set [1] (400 mg/kg, OprD− mutant) and 33% in data set [1] (400 mg/kg, wild-type isolate). Further, the Cmax in data set [1] (setting [5]) was 354 µg/mL. This molecule also yielded a half-life in data set [1] (setting [5]) of 19 min. In addition, the serum concentration result in data set [1] (lower doses (50 mg/kg and 100 mg/kg)) was “did not result a detectable serum meropenem concentration beyond 1 hour”. Moreover, the microbial response entry in data set [2] is on record as “associated with regrowth”. The “Cmin/MIC necessary to suppress the emergence of resistance” value in data set [2] (Cmax 64 μg/ml, dosing every 8 hours for 5 days) was at least 4. Besides, the MBC in data set [3] (Pseudomonas aeruginosa, ATCC27853, P. aeruginosa isolate, read-out: MBC) is 1 µg/mL (≈ 2.61 µM). In addition, the MIC turned out to be 1 µg/mL (≈ 2.61 µM) in data set [3] (Pseudomonas aeruginosa, ATCC27853, P. aeruginosa isolate, read-out: MIC) and 1 µg/mL (≈ 2.61 µM) in data set [3] (wild-type isolate used in vivo). The “survival over 4 days” value in data set [4] (400 mg/kg intra-peritoneally every 8 hours) amounted to 100%. For the same molecule, the “animals with complete replacement of bacterial population by the OprD− mutant in lung tissue” value in data set [4] (400 mg/kg intra-peritoneally every 8 hours, 96 hours) was 30%. Moreover, the “mice in which resistance emergence was found” value in data set [4] (setting [6]) is reported as 3 mice. For the same molecule, the “mice that survived up to 96 hours” value in data set [4] (setting [6]) was 10 mice. Besides, the “MIC of isolates recovered from meropenem-supplemented MHA plates compared to the OprD− mutant” value in data set [4] (repeat susceptibility testing) is recorded as “did not reveal a substantial increase in MIC”.
